Data set [1] can be described thus: Apparent permeability across human Caco-2 cells. Type of data set: ADME, cell-based. For orientation: Passage across Caco-2 layers is used to estimate intestinal permeability.
Data set [2] can be described thus: physchem. The note with it: octanol/water.

For orientation: Papp means the rate of passage across a membrane or cell layer, normalised by area and donor concentration. Broadly, the logD is the decadic logarithm of the distribution of all forms, ionised or not, between an organic phase and buffer at a given pH. High values mean a more lipophilic compound, low ones a more hydrophilic compound. On to `CN1CCC(c2cn(-c3ccc(F)cc3)c3ccc(-c4cncnc4)cc23)CC1`, for which, in data set [1], the Papp was found to be 13 ×10⁻⁶ cm/s. In data set [2], this molecule gave a logD of 1.9.

Take `Cn1nnc(-c2ccc3c(c2)c(C2CCN(CCN4CCNC4=O)CC2)cn3-c2ccc(F)cc2)n1`: the Papp in data set [1] is 12 ×10⁻⁶ cm/s. In data set [2], this molecule registered a logD of 3.06.

Consider `CCN1CCC[C@H]1CNC(=O)c1c(O)c(Cl)cc(Cl)c1OC` [RACLOPRIDE], for which the Papp in data set [1] amounted to 66 ×10⁻⁶ cm/s.

As to `CC(=O)NCc1ccc2c(c1)C(N1CCN(C)CC1)Cc1ccccc1S2` (racemic), the Papp in data set [1] worked out at 33 ×10⁻⁶ cm/s. Moreover, the logD in data set [2] was found to be 2.65.

Turning to `CC(C)C(=O)NCc1ccc2c(c1)C(N1CCN(C)CC1)Cc1ccccc1S2` (racemic), in data set [1], the Papp is 57 ×10⁻⁶ cm/s. In addition, in data set [2], the logD stood at 3.1.
